Holding throughout (assay type): cell-based
For assay [1], the target named is T1, human GCG R (Homo sapiens, UniProt P47871).
T1 construct: expressed in transfected cells
As to the kind of experiment: cAMP induction in HEK293 cells expressing human GCG R (AlphaScreen cAMP kit).

Assay [2] addresses T2, human GLP-1 R (Homo sapiens, UniProt P43220).
T2 construct: expressed in transfected cells
As to the kind of experiment: cAMP induction in HEK293 cells expressing human GLP-1 R (AlphaScreen cAMP kit). The settings on record: average EC50, cAMP, HEK293 cells expressing human GLP-1 R, read-out: GLP1 R (EC50 in nM). In general terms: Alpha assays give light when donor and acceptor beads are brought close together.

Assay [3] concerns the target T3, human GIP R (Homo sapiens, UniProt P48546).
T3 construct: expressed in transfected cells
T3 sequence (P48546 22-466): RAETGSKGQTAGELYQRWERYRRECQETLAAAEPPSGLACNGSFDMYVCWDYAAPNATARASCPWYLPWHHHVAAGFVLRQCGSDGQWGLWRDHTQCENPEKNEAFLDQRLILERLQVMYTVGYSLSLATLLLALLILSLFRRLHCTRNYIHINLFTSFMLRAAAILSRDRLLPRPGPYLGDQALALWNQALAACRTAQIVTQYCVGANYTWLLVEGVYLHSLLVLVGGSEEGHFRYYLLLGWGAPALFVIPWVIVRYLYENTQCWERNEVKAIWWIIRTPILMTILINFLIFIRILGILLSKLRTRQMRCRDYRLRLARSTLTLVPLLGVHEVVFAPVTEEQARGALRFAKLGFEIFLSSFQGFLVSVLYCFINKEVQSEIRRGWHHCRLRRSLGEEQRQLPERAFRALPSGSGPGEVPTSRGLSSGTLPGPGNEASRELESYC
As to the kind of experiment: cAMP induction in HEK293 cells expressing human GIP R (AlphaScreen cAMP kit).

Where [4] appears, read: Table 2, average EC50, cAMP, HEK293 cells expressing human GCG R, read-out: GCG R (EC50 in nM).
Setting [5] is: Table 2b (most comprehensive data).
Where [6] appears, read: Table 2, average EC50, cAMP, read-out: GIP R (EC50 in nM).
The mark [7] stands for this setting: Table 2b (most comprehensive data), average EC50, cAMP, read-out: GIP R (EC50 in nM).
The mark [8] stands for this setting: GIP R (EC50 in nM), Table 2, average EC50, cAMP.
Setting [9] is: GIP R (EC50 in nM), Table 2b (most comprehensive data), average EC50, cAMP.

Like-named read-outs stand apart in the source and are kept apart here. Peptide text beside a SMILES is read from it.

T2 sequence (P43220 24-463): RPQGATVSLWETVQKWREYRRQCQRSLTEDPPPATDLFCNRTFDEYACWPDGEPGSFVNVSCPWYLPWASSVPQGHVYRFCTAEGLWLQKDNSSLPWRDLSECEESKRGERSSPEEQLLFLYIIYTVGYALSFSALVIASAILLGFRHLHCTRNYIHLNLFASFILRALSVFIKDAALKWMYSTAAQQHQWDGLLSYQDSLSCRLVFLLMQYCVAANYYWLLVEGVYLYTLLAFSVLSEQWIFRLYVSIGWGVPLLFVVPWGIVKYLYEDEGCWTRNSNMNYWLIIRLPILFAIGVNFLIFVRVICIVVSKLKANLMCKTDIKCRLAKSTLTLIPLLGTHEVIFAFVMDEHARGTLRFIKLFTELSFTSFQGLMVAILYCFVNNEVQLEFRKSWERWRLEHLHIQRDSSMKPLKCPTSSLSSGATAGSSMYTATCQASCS
T1 sequence (P47871 26-477): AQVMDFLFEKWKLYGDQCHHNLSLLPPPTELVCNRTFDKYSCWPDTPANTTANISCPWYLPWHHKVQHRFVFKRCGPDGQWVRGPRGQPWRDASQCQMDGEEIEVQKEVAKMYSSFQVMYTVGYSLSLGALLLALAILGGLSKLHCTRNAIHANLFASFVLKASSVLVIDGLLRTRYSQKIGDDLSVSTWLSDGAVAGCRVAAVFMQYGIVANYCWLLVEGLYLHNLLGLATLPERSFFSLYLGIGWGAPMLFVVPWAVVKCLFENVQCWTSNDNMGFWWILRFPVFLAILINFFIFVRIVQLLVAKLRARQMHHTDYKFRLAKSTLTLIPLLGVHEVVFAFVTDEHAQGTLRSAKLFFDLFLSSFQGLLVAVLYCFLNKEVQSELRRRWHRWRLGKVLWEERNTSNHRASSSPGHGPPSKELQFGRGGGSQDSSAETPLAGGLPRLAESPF

As a reminder, the EC50 is the concentration at which the effect is half-maximal. As to `CCCCCCCCCCCCCCCC(=O)N[C@@H](CCC(=O)NCCCC[C@H](NC(=O)[C@H](CO)NC(=O)[C@H](Cc1ccc(O)cc1)NC(=O)[C@H](CC(=O)O)NC(=O)[C@H](CO)NC(=O)[C@@H](NC(=O)[C@H](Cc1ccccc1)NC(=O)[C@@H](NC(=O)CNC(=O)[C@H](CCC(N)=O)NC(=O)C(C)(C)NC(=O)[C@@H](N)Cc1ccc(O)cc1)[C@@H](C)O)[C@@H](C)O)C(=O)N[C@@H](Cc1ccc(O)cc1)C(=O)N[C@@H](CC(C)C)C(=O)N[C@@H](CCC(=O)O)C(=O)N[C@@H](CCCCN)C(=O)N[C@@H](CCCCN)C(=O)N[C@@H](C)C(=O)N[C@@H](C)C(=O)N[C@@H](CCCCN)C(=O)N[C@@H](CCC(=O)O)C(=O)N[C@@H](Cc1ccccc1)C(=O)N[C@H](C(=O)N[C@@H](CCC(=O)O)C(=O)N[C@@H](Cc1c[nH]c2ccccc12)C(=O)N[C@@H](CC(C)C)C(=O)N[C@@H](CC(C)C)C(=O)N[C@@H](CO)C(=O)N[C@@H](C)C(N)=O)C(C)C)C(=O)O` [Compound 25] (HELM PEPTIDE1{Y.[Aib].Q.G.T.F.T.S.D.Y.S.K.Y.L.E.K.K.A.A.K.E.F.V.E.W.L.L.S.A.[am]}|PEPTIDE2{[CCCCCCCCCCCCCCCC(=O)[*:2]].[gGlu]}$PEPTIDE1,PEPTIDE2,12:R3-2:R2$$$V2.0), the concentration for a half-maximal effect (EC50) in assay [1] (setting [4]) was found to be 0.3 nM; in assay [2] (Table 2), 0.28 nM; in assay [2] (setting [5]), 0.28 nM; in assay [3] (setting [6]), 0.25 nM; in assay [3] (setting [7]), 0.25 nM.

As to `CCCCCCCCCCCCCCCC(=O)N[C@@H](CCC(=O)NCCCC[C@H](NC(=O)[C@H](CO)NC(=O)[C@H](CC(=O)O)NC(=O)[C@H](CC(C)C)NC(=O)[C@H](Cc1ccc(O)cc1)NC(=O)[C@@H](NC(=O)[C@H](CO)NC(=O)[C@H](Cc1ccc(O)cc1)NC(=O)[C@H](CC(=O)O)NC(=O)[C@H](CO)NC(=O)[C@@H](NC(=O)[C@H](Cc1ccccc1)NC(=O)[C@@H](NC(=O)CNC(=O)[C@H](CCC(N)=O)NC(=O)C(C)(C)NC(=O)[C@@H](N)Cc1ccc(O)cc1)[C@@H](C)O)[C@@H](C)O)[C@@H](C)CC)C(=O)N[C@@H](C)C(=O)N[C@@H](C)C(=O)N[C@@H](Cc1c[nH]cn1)C(=O)N[C@@H](CC(=O)O)C(=O)N[C@@H](Cc1ccccc1)C(=O)N[C@H](C(=O)N[C@@H](CCC(=O)O)C(=O)N[C@@H](Cc1c[nH]c2ccccc12)C(=O)N[C@@H](CC(C)C)C(=O)N[C@@H](CC(C)C)C(=O)N[C@@H](CCCNC(=N)N)C(=O)N[C@@H](C)C(N)=O)C(C)C)C(=O)O` [Compound 27] (HELM PEPTIDE1{Y.[Aib].Q.G.T.F.T.S.D.Y.S.I.Y.L.D.S.K.A.A.H.D.F.V.E.W.L.L.R.A.[am]}|PEPTIDE2{[CCCCCCCCCCCCCCCC(=O)[*:2]].[gGlu]}$PEPTIDE1,PEPTIDE2,17:R3-2:R2$$$V2.0), the EC50 in assay [1] (setting [4]) came to 0.07 nM; in assay [2] (Table 2), 0.16 nM; in assay [2] (setting [5]), 0.07 nM; in assay [3] (setting [6]), 0.12 nM; in assay [3] (setting [7]) it was 0.16 nM.

Turning to `CCCCCCCCCCCCCCCC(=O)N[C@@H](CCC(=O)NCCCC[C@H](NC(=O)[C@H](CCC(=O)O)NC(=O)[C@H](CC(C)C)NC(=O)[C@H](Cc1ccc(O)cc1)NC(=O)[C@@H](NC(=O)[C@H](CO)NC(=O)[C@H](Cc1ccc(O)cc1)NC(=O)[C@H](CC(=O)O)NC(=O)[C@H](CO)NC(=O)[C@@H](NC(=O)[C@H](Cc1ccccc1)NC(=O)[C@@H](NC(=O)CNC(=O)[C@H](CCC(N)=O)NC(=O)C(C)(C)NC(=O)[C@@H](N)Cc1ccc(O)cc1)[C@@H](C)O)[C@@H](C)O)[C@@H](C)CC)C(=O)N[C@@H](CCCCN)C(=O)N[C@@H](C)C(=O)N[C@@H](C)C(=O)N[C@@H](CCCCN)C(=O)N[C@@H](CCC(=O)O)C(=O)N[C@@H](Cc1ccccc1)C(=O)N[C@H](C(=O)N[C@@H](CCC(=O)O)C(=O)N[C@@H](Cc1c[nH]c2ccccc12)C(=O)N[C@@H](CC(C)C)C(=O)N[C@@H](CC(C)C)C(=O)N[C@@H](CO)C(=O)N[C@@H](C)C(N)=O)C(C)C)C(=O)O` [Compound 24] (HELM PEPTIDE1{Y.[Aib].Q.G.T.F.T.S.D.Y.S.I.Y.L.E.K.K.A.A.K.E.F.V.E.W.L.L.S.A.[am]}|PEPTIDE2{[CCCCCCCCCCCCCCCC(=O)[*:2]].[gGlu]}$PEPTIDE1,PEPTIDE2,16:R3-2:R2$$$V2.0), the concentration giving a half-maximal response (EC50) in assay [1] came to 0.28 nM; in assay [2] (Table 2), 0.091 nM; in assay [2] (setting [5]), 0.091 nM; in assay [3] (setting [8]), 0.1 nM; in assay [3] (setting [9]), 0.1 nM.

As to `CC[C@H](C)[C@H](NC(=O)[C@H](CO)NC(=O)[C@H](Cc1ccc(O)cc1)NC(=O)[C@H](CC(=O)O)NC(=O)[C@H](CO)NC(=O)[C@@H](NC(=O)[C@H](Cc1ccccc1)NC(=O)[C@@H](NC(=O)CNC(=O)[C@H](CCC(N)=O)NC(=O)C(C)(C)NC(=O)[C@@H](N)Cc1ccc(O)cc1)[C@@H](C)O)[C@@H](C)O)C(=O)N[C@@H](Cc1ccc(O)cc1)C(=O)N[C@@H](CC(C)C)C(=O)N[C@@H](CC(=O)O)C(=O)N[C@@H](CO)C(=O)N[C@@H](CCCCN)C(=O)N[C@@H](C)C(=O)N[C@@H](C)C(=O)N[C@@H](Cc1c[nH]cn1)C(=O)N[C@@H](CC(=O)O)C(=O)N[C@@H](Cc1ccccc1)C(=O)N[C@H](C(=O)N[C@@H](CCC(=O)O)C(=O)N[C@@H](Cc1c[nH]c2ccccc12)C(=O)N[C@@H](CC(C)C)C(=O)N[C@@H](CC(C)C)C(=O)N[C@@H](CO)C(=O)N[C@@H](C)C(=O)NCC(=O)N1CCC[C@H]1C(=O)N[C@@H](CO)C(=O)N[C@@H](CO)C(=O)NCC(=O)N[C@@H](C)C(=O)N1CCC[C@H]1C(=O)N1CCC[C@H]1C(=O)N1CCC[C@H]1C(=O)N[C@@H](CO)C(N)=O)C(C)C` [Compound 13] (HELM PEPTIDE1{Y.[Aib].Q.G.T.F.T.S.D.Y.S.I.Y.L.D.S.K.A.A.H.D.F.V.E.W.L.L.S.A.G.P.S.S.G.A.P.P.P.S.[am]}$$$$V2.0), the concentration giving a half-maximal response (EC50) was determined as 0.24 nM in assay [1] (setting [4]), 0.0099 nM in assay [2] (Table 2), 0.083 nM in assay [3] (setting [6]) and 0.01 nM in assay [3] (setting [7]).

Consider `CC(C)C[C@H](NC(=O)[C@H](CC(C)C)NC(=O)[C@H](Cc1c[nH]c2ccccc12)NC(=O)[C@H](CCC(=O)O)NC(=O)[C@@H](NC(=O)[C@H](Cc1ccccc1)NC(=O)[C@H](CC(=O)O)NC(=O)[C@H](Cc1c[nH]cn1)NC(=O)[C@H](C)NC(=O)[C@H](C)NC(=O)[C@H](CCCCN)NC(=O)[C@H](CO)NC(=O)[C@H](CC(=O)O)NC(=O)[C@H](CC(C)C)NC(=O)[C@H](Cc1ccc(O)cc1)NC(=O)[C@H](CCCCN)NC(=O)[C@H](CO)NC(=O)[C@H](Cc1ccc(O)cc1)NC(=O)[C@H](CC(=O)O)NC(=O)[C@H](CO)NC(=O)[C@@H](NC(=O)[C@H](Cc1ccccc1)NC(=O)[C@@H](NC(=O)CNC(=O)[C@H](CCC(N)=O)NC(=O)C(C)(C)NC(=O)[C@@H](N)Cc1ccc(O)cc1)[C@@H](C)O)[C@@H](C)O)C(C)C)C(=O)N[C@@H](CCCNC(=N)N)C(=O)N[C@@H](C)C(N)=O` [Compound 3] (HELM PEPTIDE1{Y.[Aib].Q.G.T.F.T.S.D.Y.S.K.Y.L.D.S.K.A.A.H.D.F.V.E.W.L.L.R.A.[am]}$$$$V2.0), for which the EC50 came to 0.022 nM in assay [1]; 0.015 nM in assay [2] (Table 2); 0.022 nM in assay [2] (setting [5]); 0.13 nM in assay [3] (setting [8]); 0.015 nM in assay [3] (setting [9]).

Consider `CC[C@H](C)[C@H](NC(=O)[C@H](CO)NC(=O)[C@H](Cc1ccc(O)cc1)NC(=O)[C@H](CC(=O)O)NC(=O)[C@H](CO)NC(=O)[C@@H](NC(=O)[C@H](Cc1ccccc1)NC(=O)[C@@H](NC(=O)CNC(=O)[C@H](CCC(N)=O)NC(=O)C(C)(C)NC(=O)[C@@H](N)Cc1ccc(O)cc1)[C@@H](C)O)[C@@H](C)O)C(=O)N[C@@H](Cc1ccc(O)cc1)C(=O)N[C@@H](CC(C)C)C(=O)N[C@@H](CC(=O)O)C(=O)N[C@@H](CCC(=O)O)C(=O)N[C@@H](CCCCN)C(=O)N[C@@H](C)C(=O)N[C@@H](C)C(=O)N[C@@H](CCCCN)C(=O)N[C@@H](CC(=O)O)C(=O)N[C@@H](Cc1ccccc1)C(=O)N[C@H](C(=O)N[C@@H](CCC(=O)O)C(=O)N[C@@H](Cc1c[nH]c2ccccc12)C(=O)N[C@@H](CC(C)C)C(=O)N[C@@H](CC(C)C)C(=O)N[C@@H](CO)C(=O)N[C@@H](C)C(N)=O)C(C)C` [Compound 17] (HELM PEPTIDE1{Y.[Aib].Q.G.T.F.T.S.D.Y.S.I.Y.L.D.E.K.A.A.K.D.F.V.E.W.L.L.S.A.[am]}$$$$V2.0), for which the concentration giving a half-maximal response (EC50) is 0.16 nM in assay [1]; 0.011 nM in assay [2] (Table 2); 0.16 nM in assay [2] (setting [5]); 0.091 nM in assay [3] (setting [8]); 0.013 nM in assay [3] (setting [9]).

The record behind these values is patent US10131702B2, “Glucagon-GLP-1-GIP triple agonist compounds” (priority 2013, dated 2018).
